Test results reported in patent US7994307B2, “RNAi modulation of the BCR-ABL fusion gene and uses thereof” (Alnylam Pharmaceuticals, Inc., priority 2004, dated 2011).
Entries after “also recorded” stand apart in the source; their conditions may differ. Counter-ions that a name gives are not always drawn.

Legend:
32Dp210-H396P cells = assay: Sensitivity to imatinib mesylate of 32Dp210-H396P cells; type: cell-based, murine; details: 32D cells expressing Bcr-Abl-H396P
32Dp210-T315I cells = assay: Sensitivity to imatinib mesylate of 32Dp210-T315I cells; type: cell-based, murine; details: 32D cells expressing Bcr-Abl-T315I
K562 cells = details: 48 h treatment with imatinib mesylate alone (Wilda et al.); cited from earlier work
p210Bcr-Abl (e14a2) = assay: Western blot of Bcr-Abl protein in 32Dp210/e14a2 cells after siRNA electroporation; type: cell-based, murine; details: 32Dp210Bcr-Abl (e14a2) cells
Sequence of p210Bcr-Abl (e14a2) (P11274+P00519 fused): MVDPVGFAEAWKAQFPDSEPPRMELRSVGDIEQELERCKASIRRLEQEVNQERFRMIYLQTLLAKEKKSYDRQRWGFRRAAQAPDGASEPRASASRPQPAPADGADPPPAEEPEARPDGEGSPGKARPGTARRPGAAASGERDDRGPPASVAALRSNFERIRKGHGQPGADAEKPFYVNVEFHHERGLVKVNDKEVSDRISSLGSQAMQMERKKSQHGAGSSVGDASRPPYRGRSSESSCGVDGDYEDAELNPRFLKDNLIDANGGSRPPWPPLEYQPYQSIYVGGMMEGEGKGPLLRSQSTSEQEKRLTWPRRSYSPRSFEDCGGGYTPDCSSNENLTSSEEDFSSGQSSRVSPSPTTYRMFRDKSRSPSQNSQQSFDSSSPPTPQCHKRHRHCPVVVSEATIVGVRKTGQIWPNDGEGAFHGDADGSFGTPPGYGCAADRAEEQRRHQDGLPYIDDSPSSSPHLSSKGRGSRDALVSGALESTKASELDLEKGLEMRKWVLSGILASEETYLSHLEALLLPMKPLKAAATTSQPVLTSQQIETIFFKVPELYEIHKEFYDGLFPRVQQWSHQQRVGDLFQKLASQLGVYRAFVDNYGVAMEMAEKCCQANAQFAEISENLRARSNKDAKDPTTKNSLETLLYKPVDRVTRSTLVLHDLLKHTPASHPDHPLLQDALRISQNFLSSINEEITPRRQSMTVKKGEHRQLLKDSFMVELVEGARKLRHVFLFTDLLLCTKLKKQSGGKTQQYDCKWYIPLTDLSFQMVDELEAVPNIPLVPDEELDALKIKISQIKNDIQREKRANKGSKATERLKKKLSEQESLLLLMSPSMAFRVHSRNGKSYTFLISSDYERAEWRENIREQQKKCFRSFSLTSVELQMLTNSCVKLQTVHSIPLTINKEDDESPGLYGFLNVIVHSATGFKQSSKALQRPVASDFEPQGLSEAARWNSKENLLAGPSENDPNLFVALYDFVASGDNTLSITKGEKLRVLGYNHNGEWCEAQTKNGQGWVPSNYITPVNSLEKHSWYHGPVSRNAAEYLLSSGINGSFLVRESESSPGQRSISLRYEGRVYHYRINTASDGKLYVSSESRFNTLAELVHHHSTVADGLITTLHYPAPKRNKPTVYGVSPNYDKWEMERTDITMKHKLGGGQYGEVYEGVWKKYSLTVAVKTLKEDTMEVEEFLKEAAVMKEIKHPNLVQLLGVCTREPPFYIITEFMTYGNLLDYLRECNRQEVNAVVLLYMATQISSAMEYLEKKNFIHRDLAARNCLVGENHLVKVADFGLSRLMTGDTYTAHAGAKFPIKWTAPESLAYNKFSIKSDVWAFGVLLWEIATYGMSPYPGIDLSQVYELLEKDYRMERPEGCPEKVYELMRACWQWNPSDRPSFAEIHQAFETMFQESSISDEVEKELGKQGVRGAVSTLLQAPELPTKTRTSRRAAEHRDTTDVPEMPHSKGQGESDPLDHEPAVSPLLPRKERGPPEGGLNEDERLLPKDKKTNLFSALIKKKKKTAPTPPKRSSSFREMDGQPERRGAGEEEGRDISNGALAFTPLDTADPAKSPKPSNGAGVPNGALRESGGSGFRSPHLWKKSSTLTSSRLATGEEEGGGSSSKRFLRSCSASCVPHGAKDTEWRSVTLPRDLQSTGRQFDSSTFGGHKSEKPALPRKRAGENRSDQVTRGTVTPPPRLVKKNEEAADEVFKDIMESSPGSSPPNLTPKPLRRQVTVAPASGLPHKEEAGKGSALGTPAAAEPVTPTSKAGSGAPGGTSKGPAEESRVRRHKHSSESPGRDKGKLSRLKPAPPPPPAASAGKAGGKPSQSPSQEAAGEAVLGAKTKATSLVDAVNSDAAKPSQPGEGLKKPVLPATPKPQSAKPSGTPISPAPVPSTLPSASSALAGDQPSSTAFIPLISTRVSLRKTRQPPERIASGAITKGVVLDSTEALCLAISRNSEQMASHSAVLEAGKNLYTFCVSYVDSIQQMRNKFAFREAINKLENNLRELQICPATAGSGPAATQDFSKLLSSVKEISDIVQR
Description: (§1) Protein assay: Western blot analysis was performed ˜24 h following the last siRNA -treatment or ˜96 hours following transfection with the pSUPER siRNA-expression vector as described (Goetz A W, et al., Cancer Res. 2001, 61:7635)
(§2) siRNA-transfection: siRNAs were transfected into the murine cell lines 32Dp210Bcr-Abl-e14a2, -e13a2, 32Dp190Bcr-Abl-e1a2 and the human leukemic cell line MEG-01 using electroporation. Cell density was adjusted to 2.5-5×10^6/ml in RPMI/10% FCS. 800 μl of this cell suspension were mixed with siRNA in a 4 mm electroporation cuvette. Cells were electroporated by means of an EasyJect electroporator (peqlab, Erlangen, Germany) using a single-pulse protocol (250 V, 1800 μF, 8.). This treatment was repeated in intervals of 24 hours as indicated.
(§3) In 32Dp210Bcr-Abl-e14a2, -e13a2 and 32Dp190Bcr-Abl-e1a2 inhibition of Bcr-Abl can be compensated by addition of exogenous growth factor to the medium. Therefor, recombinant murine IL-3, (1 ng/ml) was added to the growth medium during siRNA treatment of these cell lines. Following the last siRNA treatment cells were washed and factor deprived before starting the different examination procedures (Western blot/MTT).
We used three murine hematopoetic 32D cell lines expressing either p210Bcr-Abl (e14a2), p210Bcr-Abl (e13a2) or p190Bcr-Abl (e1a2) to study the effectiveness of siRNAs to silence each of these human Bcr-Abl fusion breakpoint variants. In addition, experiments were performed in human Ph+leukemia cells (K562, MEG-01). All siRNAs used were directed to breakpoints of the Bcr and Abl sequence of the respective Bcr-Abl mRNA. RNAi-efficiency was assayed via analysis of Bcr-Abl protein levels and by monitoring the biological effect using MTT viability assay.

32Dp210/e14a2 cells [1] = assay: MTT viability assay in 32Dp210/e14a2 cells after siRNA electroporation; type: cell-based, murine; details: treated four times, MTT
Description: (§4) Survival Assay: Following the last siRNA treatment cells were seeded in 96 well plates and cultivated for another ˜48 hours. Cell survival was then measured by MTT assay as described (Van der Kuip H, et al., Blood. 2001, 98:1532)
as §2, §3

p210Bcr-Abl (e13a2) = assay: Western blot of Bcr-Abl protein in 32Dp210/e13a2 cells; type: cell-based, murine; details: 32Dp210Bcr-Abl (e13a2) cells, repeated electroporation
Sequence of p210Bcr-Abl (e13a2) (P11274+P00519 fused): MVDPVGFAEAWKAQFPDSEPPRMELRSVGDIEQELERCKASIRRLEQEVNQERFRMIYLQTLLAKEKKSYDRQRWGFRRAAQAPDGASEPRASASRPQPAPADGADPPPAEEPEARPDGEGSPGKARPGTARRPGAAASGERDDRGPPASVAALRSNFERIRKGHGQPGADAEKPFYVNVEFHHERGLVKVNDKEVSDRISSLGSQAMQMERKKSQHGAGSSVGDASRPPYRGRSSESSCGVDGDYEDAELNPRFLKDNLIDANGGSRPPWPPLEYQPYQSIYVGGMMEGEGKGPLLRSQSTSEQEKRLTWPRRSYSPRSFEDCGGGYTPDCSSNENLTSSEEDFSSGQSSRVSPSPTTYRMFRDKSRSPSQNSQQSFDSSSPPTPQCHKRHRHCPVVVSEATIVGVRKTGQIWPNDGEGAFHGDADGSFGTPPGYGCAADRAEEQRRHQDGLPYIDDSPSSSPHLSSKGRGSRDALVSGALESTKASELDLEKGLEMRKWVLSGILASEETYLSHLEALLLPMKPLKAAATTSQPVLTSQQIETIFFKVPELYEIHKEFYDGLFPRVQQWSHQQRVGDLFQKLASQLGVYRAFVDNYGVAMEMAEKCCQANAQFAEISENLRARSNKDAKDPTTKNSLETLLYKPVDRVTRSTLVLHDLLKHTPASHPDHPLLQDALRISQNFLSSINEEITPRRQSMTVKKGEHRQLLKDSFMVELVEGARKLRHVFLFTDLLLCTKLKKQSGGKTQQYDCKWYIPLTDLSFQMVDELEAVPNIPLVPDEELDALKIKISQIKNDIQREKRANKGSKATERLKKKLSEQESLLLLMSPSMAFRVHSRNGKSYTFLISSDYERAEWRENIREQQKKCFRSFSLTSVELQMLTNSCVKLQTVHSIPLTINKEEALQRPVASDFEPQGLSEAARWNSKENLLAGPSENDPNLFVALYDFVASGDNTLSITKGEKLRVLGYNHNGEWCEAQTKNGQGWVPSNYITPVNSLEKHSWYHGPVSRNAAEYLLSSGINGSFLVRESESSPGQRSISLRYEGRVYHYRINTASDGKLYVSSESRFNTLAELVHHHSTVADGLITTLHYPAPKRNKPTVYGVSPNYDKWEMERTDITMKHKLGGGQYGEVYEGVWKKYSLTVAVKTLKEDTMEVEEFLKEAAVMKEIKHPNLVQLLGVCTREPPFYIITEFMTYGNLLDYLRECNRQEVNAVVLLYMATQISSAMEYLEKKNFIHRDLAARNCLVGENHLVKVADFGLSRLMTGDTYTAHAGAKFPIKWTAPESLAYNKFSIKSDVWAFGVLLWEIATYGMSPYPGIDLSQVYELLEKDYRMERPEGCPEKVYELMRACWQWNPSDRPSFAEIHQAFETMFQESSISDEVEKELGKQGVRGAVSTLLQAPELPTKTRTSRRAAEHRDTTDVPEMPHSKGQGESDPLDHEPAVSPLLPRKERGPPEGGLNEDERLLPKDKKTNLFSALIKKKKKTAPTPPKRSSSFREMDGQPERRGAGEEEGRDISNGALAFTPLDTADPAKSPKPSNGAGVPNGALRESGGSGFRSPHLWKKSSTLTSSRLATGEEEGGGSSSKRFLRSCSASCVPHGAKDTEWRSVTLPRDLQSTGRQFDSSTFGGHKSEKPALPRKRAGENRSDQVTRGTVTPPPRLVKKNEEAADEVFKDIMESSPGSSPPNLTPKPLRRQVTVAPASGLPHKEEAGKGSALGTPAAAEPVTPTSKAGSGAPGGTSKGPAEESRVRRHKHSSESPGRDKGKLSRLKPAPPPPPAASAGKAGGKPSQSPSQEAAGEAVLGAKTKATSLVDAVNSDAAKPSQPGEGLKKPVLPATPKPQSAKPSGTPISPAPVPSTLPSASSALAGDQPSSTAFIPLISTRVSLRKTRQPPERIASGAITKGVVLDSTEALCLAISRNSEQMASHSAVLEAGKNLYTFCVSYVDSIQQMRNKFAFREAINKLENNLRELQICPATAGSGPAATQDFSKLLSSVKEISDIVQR
Description: (§5) FIGS. 1A-1B: ˜2.5 Mio 32Dp210/e13a2 cells have been electroporated 1-3×at intervals of 24 h with the indicated siRNA. BAF3/BAF15/BAF17/BAF19: bcr-abl-e13a2-specific siRNAs; BAF9: bcr-abl-e14a2-specific siRNA, served as control; EPC: electroporation control. FIG. 1A: Western blot analysis of p210^Bcr-abl (e13a2) in 32Dp210/e13a2˜24 h following siRNA treatment; the level of GAPDH served as loading control. Lane 1: EPC, Lane 2: BAF9, Lane 3: BAF3, Lane 4: BAF15, Lane 5: BAF17, Lane 6: BAF19. […] Values are means +/− SD of triplicates.
as §1, §2, §3

32Dp210/e13a2 cells = assay: MTT viability assay in 32Dp210/e13a2 cells; type: cell-based, murine; details: 32Dp210Bcr-Abl (e13a2) cells; for viability: repeated (up to three) treatments; for viability relative to controls (EPC): 48 h following 3rd treatment
Description: as §5, §4, §2, §3

32Dp210/e14a2 cells [2] = assay: Total cell number 48 h after last siRNA treatment, 32Dp210/e14a2 cells; type: cell-based, murine; details: start 2.5 Mio cells
Description: as §2
In order to determine optimal conditions for RNA interference, we repeated the siRNA treatment one to four times at intervals of 24 hours. […] Despite its short duration, the effect was still sufficient to reduce the viability of cells to approximately 59% relative to control cells (EPC, 100%). […] The residual viability level of the cells treated four times with BAF7 measured in MTT assay was not more than ˜2.5% of the level of the control cells. Identical results were obtained when cell counts 48 hours following last treatment were used for assessment of the biological effect. Both mock-treated and cells treated with a mismatch siRNA still increased their cell number from 2.5 Mio cells to more than 25 Mio cells within 48 hours. […] The lower efficiency of BAF1 became even more obvious when the biological effect of BAF1 was assessed.

Bcr-Abl-e13a2 = assay: Western blot of Bcr-Abl protein in MEG-01 cells; type: cell-based, human; details: treated three times, compared to mismatch control BAF28
Description: as §1, §2
(§6) All three major Bcr-Abl oncogene variants -e14a2, -e13a2 and -e1a2 can be targeted by RNA interference. To identify effective siRNAs for inhibition of the second major Bcr-Abl fusion gene relevant in CML, Bcr-Abl-e13a2, we treated 32Dp210Bcr-Abl (e13a2) cells with four siRNAs (BAF3, BAF15, BAF17, BAF19) targeting different sequences of the Bcr-Able13a2 mRNA breakpoint. As a control we used a siRNA directed to the Bcr-Abl-e14a2 fusion sequence (BAF9). […] Despite the considerable overlap in their target sequence, BAF17 and BAF3 had no effect Bcr-Abl protein levels. […]

MEG-01 cells = assay: MTT viability assay in MEG-01 cells; type: cell-based, human; details: treated three times
Description: as §4, §2, §6

p190Bcr-Abl (e1a2) = assay: Western blot of Bcr-Abl protein in 32Dp190/e1a2 cells; type: cell-based, murine; details: 32Dp190Bcr-Abl (e1a2) cells, treated twice at intervals of 24 h
Description: (§7) FIGS. 2A-2B: ˜5 Mio 32Dp190/e1a2 cells have been electroporated twice at intervals of 24 h with the indicated siRNA. BAF22/BAF24: bcr-abl-e1a2-specific siRNAs; BAF9: bcr-abl-e14a2-specific siRNA, served as control; BAF19: bcr-abl-e13a2-specific siRNA, served as control; EPC: electroporation control. FIG. 2A: Western blot analysis of p190^Bcr-abl (e1a2) in 32Dp190/e1a2 cells about 24 h following second siRNA treatment; the level of GAPDH served as loading control. Lane 1: EPC, Lane 2: BAF9, Lane 3: BAF19, Lane 4: BAF22, Lane 5: BAF24. […] Values are means +/− SD of triplicates.
as §1
as §2, with “indicated. […]” for “indicated.”

32Dp190/e1a2 cells = assay: MTT viability assay in 32Dp190/e1a2 cells; type: cell-based, murine
Description: as §7
[…] Cell survival was then measured by MTT assay as described (Van der Kuip H, et al., Blood. 2001, 98:1532)
as §2
In 32Dp210Bcr-Abl-e14a2, -e13a2 and 32Dp190Bcr-Abl-e1a2 inhibition of Bcr-Abl can be compensated by addition of exogenous growth factor to the medium. […]

p190Bcr-Abl = assay: Western blot of p190Bcr-Abl in SUP-B15 cells; type: cell-based, human; details: 3 treatments at intervals of 24 hours, compared to EPC or BAF19 control
Description: FIG. 3: Cells from the human B cell precursor leukemia cell line SUP-B15 (ACC 389; DSMZ, Braunschweig, breakpoint variant e1a2) were treated as described for […] with an e1a2-specific siRNA (BAF22) or with siRNA directed to another breakpoint variant (BAF19, specific for e13a2) as a control.
as §2
SUP-B15 cells were treated by electroporation as described above with an e1a2-specific siRNA (BAF22) or with siRNA directed to another breakpoint variant (BAF19) as a control.

For `Cc1ccc(NC(=O)c2ccc(CN3CCN(C)CC3)cc2)cc1Nc1nccc(-c2cccnc2)n1` [imatinib mesylate, Imatinib mesylate], the “loss of sensitivity to imatinib mesylate compared to 32Dp210-wt” value (32Dp210-H396P cells) is given as ~4.7 fold, the “resistance to imatinib mesylate” value (32Dp210-T315I cells) is given as “complete resistance” and the cells undergoing apoptosis (K562 cells) is given as 8%.
For “BAF1: siRNA duplex, SEQ ID No. 7/8, single mismatch compared to BAF7 (chain 1 CAGAGUUGAAAAGCCCUUCAG; chain 2 CUGAAGGGCUUUUCAACUCUGCU; listed as RNA, chemistry not given here) [reference compound]”, the “down-regulation of Bcr-Abl protein levels compared to BAF7” value (p210Bcr-Abl (e14a2)) was “less efficient down-regulation” and the “viability relative to EPC” value (32Dp210/e14a2 cells [1]) was 52%.
In the case of “BAF3: siRNA duplex, SEQ ID No. 9/10, specific for Bcr-Abl-e13a2 (chain 1 UAAGGAAGAAGCCCUUCAGCG; chain 2 CGCUGAAGGGCUUCUUCCUUAUU; listed as RNA, chemistry not given here)”, the Bcr-Abl protein levels (p210Bcr-Abl (e13a2)) is reported as “completely ineffective; also recorded: no effect” and the viability (32Dp210/e13a2 cells) is reported as “did also not interfere with the viability”.
With “BAF8: siRNA duplex, SEQ ID No. 3/4, Bcr-Abl-e14a2, mismatch control to BAF7 (three mismatches) (chain 1 CAGUGUUCAUAAGCCGUUCAG; chain 2 CUGAACGGCUUAUGAACACUGCU; chemistry not given here)” the “total cell number 48 h following last treatment” value (32Dp210/e14a2 cells [2]) was “more than 25 Mio cells”.
With “BAF15: siRNA duplex, SEQ ID No. 11/25, specific for Bcr-Abl-e13a2 (chain 1 AAUAAGGAAGAAGCCCUUCAG; chain 2 CUGAAGGGCUUCUUCCUUAUUGA; listed as RNA, chemistry not given here)” the Bcr-Abl protein levels (p210Bcr-Abl (e13a2)) was “effective down-regulation”, the “viability relative to controls (EPC)” value (32Dp210/e13a2 cells) was ~10% and the viability (32Dp210/e13a2 cells) was “almost complete loss of viability; also recorded: reduction of viability”.
For “BAF17: siRNA duplex, SEQ ID No. 13/26, specific for Bcr-Abl-e13a2 (chain 1 GGAAGAAGCCCUUCAGCGGCC; chain 2 GGCCGCUGAAGGGCUUCUUCCUU; listed as RNA, chemistry not given here)”, the Bcr-Abl protein levels (p210Bcr-Abl (e13a2)) was “no effect” and the viability (32Dp210/e13a2 cells) was “did also not interfere with the viability”.
In the case of “BAF19: siRNA duplex, SEQ ID No. 15/27, specific for Bcr-Abl-e13a2 (chain 1 AUCAAUAAGGAAGAAGCCCUU; chain 2 AAGGGCUUCUUCCUUAUUGAUGG; listed as RNA, chemistry not given here)”, the Bcr-Abl protein levels (p210Bcr-Abl (e13a2)) is reported as “effective down-regulation”, the “viability relative to controls (EPC)” value (32Dp210/e13a2 cells) is reported as ~14% and the viability (32Dp210/e13a2 cells) is reported as “almost complete loss of viability; also recorded: reduction of viability”. The “Bcr-Abl protein levels / Bcr-Abl-e13a2 expression” value (Bcr-Abl-e13a2) was “effectively silenced Bcr-Abl-e13a2 expression; also recorded: significant loss of Bcr-Abl protein levels” and the “viability compared to control cells (EPC, 100%)” value (MEG-01 cells) was ~28%.
For “BAF22: siRNA duplex, SEQ ID No. 19/28, specific for Bcr-Abl-e1a2 (chain 1 GGAGACGCAGAAGCCCUUCAG; chain 2 CUGAAGGGCUUCUGCGUCUCCAU; listed as RNA, chemistry not given here)”, the “Bcr-Abl protein levels / Bcr-Abl-e1a2 gene expression” value (p190Bcr-Abl (e1a2)) was “actively silenced Bcr-Abl-e1a2 gene expression; also recorded: significant down-regulation”, the viability (32Dp190/e1a2 cells; 32Dp190/e1a2 cells, repeated treatment, ~40 h after second treatment) was “reduction of viability” and the “viability compared to EPC (100%)” value (32Dp190/e1a2 cells; 32Dp190Bcr-Abl (e1a2) cells, after 2nd treatment) was 15%. The “p190Bcr-Abl protein levels / Bcr-Abl-e1a2 expression” value (p190Bcr-Abl) was “effectively silenced Bcr-Abl-e1a2 expression; also recorded: significantly reduced”.
In the case of “BAF24: siRNA duplex, SEQ ID No. 21/22, specific for Bcr-Abl-e1a2 (chain 1 GACGCAGAAGCCCUUCAGCGG; chain 2 CCGCUGAAGGGCUUCUGCGUCUC; listed as RNA, chemistry not given here)”, the “Bcr-Abl protein levels / Bcr-Abl-e1a2 gene expression” value (p190Bcr-Abl (e1a2)) is reported as “no effect at all”.
